Columns and labels:
[1] = Degradation of apelin peptides by plasma from fasted normal NIH Swiss mice (rp-HPLC, MALDI-TOF MS); assay type: in vitro ADME
Method in brief: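 Apelin peptides were incubated with plasma from fasted normal NIH Swiss mice for 4 h, and the reaction was stopped with TFA. Products were separated by C-8 rp-HPLC with detection at 214 nm. Peak fractions were identified by MALDI-TOF MS, giving fragment molecular weights and retention times.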

[2] = system: NIH Swiss mice fed a high-fat diet for 150 days; test: Acute and delayed i.p. glucose tolerance test, blood glucose and plasma insulin; assay type: in vivo; conditions: acute, Table 4
Method in brief: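 Diet-induced obese-diabetic mice (high-fat diet 150 days, 18 h fasted) received i.p. glucose (18 mmol/kg) alone or with apelin analogues (25 nmol/kg), or analogues given 2, 8 or 16 h beforehand. Tail blood glucose and plasma insulin sampled at 0, 15, 30, 60, 105 min; n=8, mean±SEM.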

[3] = system: male NIH Swiss mice; test: Acute effects of apelin analogues on voluntary food intake; assay type: in vivo; conditions: 100 nmol/kg i.p., FIG. 37
Protocol: Saline and peptide analogues were administered by intraperitoneal injection and cumulative food intake was monitored at 30, 60, 90 and 120 min after feeding.
Mice were habituated to a daily feeding regime of 3 h/day by progressively reducing the daily feeding period over 3 weeks. This was performed to ensure mice consumed entire daily food intake within 3 h, thereby allowing “peptide” effects to be measured over the known eating period of mice. On days 1 to 7, mice were supplied with food from 10:00 h to 20:00 h, on days 8 to 14, food was presented from 10:00 h to 19:00 h and on days 15 to 21, food was restricted to the 3 h interval from 10:00 h to 13:00 h. This regime was continued throughout the experimental period.
Mice that were habituated to a 3 h daily feeding regime were administered with an i.p. injection of saline (0.9% w/v NaCl) or apelin peptide (1-100 nmol/kg bw) at 10:00 h (n=8). Immediately following injection, food was initially weighed and then presented to the mice and subsequently weighed at 30 min intervals up to 180 min.

[4] = plasma incubation 4 h, fragment identified by MALDI-TOF MS
[5] = peptide 25 nmol/kg i.p. with glucose 18 mmol/kg

## CSCC[C@H](NC(=O)[C@@H]1CCCN1C(=O)CNC(=O)[C@H](CCCCN)NC(=O)[C@H](Cc1cnc[nH]1)NC(=O)[C@H](CO)NC(=O)[C@H](CC(C)C)NC(=O)[C@H](CCCNC(=N)N)NC(=O)[C@@H]1CCCN1C(=O)[C@H](CCCNC(=N)N)NC(=O)[C@@H](N)CCC(N)=O)C(=O)N1CCC[C@H]1C(=O)N[C@@H](Cc1ccccc1)C(=O)O [Apelin-13, reference compound]
[1]; NIH Swiss, pH 7.4, mouse plasma, 37° C., 4 h, mean ± SEM, 2 experiments, read-out: % intact peptide (4 h)
  remaining at 4 h, 263 µg/mL: 25.4 ± 1.5%
[1]; NIH Swiss, pH 7.4, mouse plasma, estimated by linear regression of % intact peptide against time, read-out: Half-life (t1/2) (converted)
  half-life at 263 µg/mL: 2.1 h
[1]; mouse plasma, 1 = most stable
  Rank order of stability: 14
[1]; [4]
  Degradation fragment, Peak 1: Apelin-13 (1-11)
  Degradation fragment, Peak 2: Apelin-13 (1-12)
[2]
  Rank order on basis of anti-hyperglycaemic efficacy: 6
[2]; [5]
  Blood glucose as percent of glucose-alone control (lower = stronger glucose lowering): 92% ^
  Insulin secretion, where glucose alone = 100%: 111% ^
[3]; at 90 min
  Reduction of food intake: 16.7%
[3]; over 3 h
  Persistence of the food intake reduction: not sustainable over 3 h

Source: US10118954B2, “Apelin analogues” (University of Ulster, priority 2014, dated 2018)
